Laboratory results taken from patent US7569526B2, “Anti-oxidants in soluble oil base for metal working fluids” (Crompton Corporation, priority 2003, dated 2009).
“And” between values parts separate entries of the source, which are not always exact repeats. Equal values may be shown once. Each block holds one molecule with its values, some of them ahead of it.

What was measured:
[1] = Modified ASTM D3946 bottle test, sediment and pH (Examples 25-34); assay type: physicochemical; conditions: 25° C.; filtered at end of test
Procedure: (§1) A modified ASTM D3946 method was run according to the following procedure:
(§2) 1. A 1-quart straight side jar was filled with 500 mL of emulsion. (Note: the straight sides of the jar allow culture plates to be immersed in the emulsion in situ. No steel chips were added.)
(§3) 2. While immersed in a 25° C. water bath, the jars were sparged with air using a disposable pipette at a flow rate of approximately 500 mL/min. (Note: this may need to be adjusted depending on the air supply and the amount of foaming observed).
(§4) 3. The pH was measured using standard pH paper or pH meter and bacteria/fungus counts were measured at one and two week intervals using culture plates (SaniCheck BF culture plates from Biosan Laboratories, Inc. were use in this study, but there are many suppliers available). Although the manufacturers protocol called for incubation between 24 and 36 hours, the bacteria counts were measured after 24, 30, and 48-hour incubations at 28° C. The bacterial onset was measured as the number of weeks necessary to observe at least a 10^3 bacteria count/mL on the culture plate (threshold value of this type of plate). Optionally, the average bacterial count can be calculated over the length of the test period.
4. At the end of the test, the solutions were filtered through medium filter paper (Whatman #2) and the amount of sediment recovered was weighed.
(§5) 5. Unless noted above, the other test details are identical to ASTM D3946.
In this case, after 22 weeks the pH broke and dropped from 9.0 to 7.0. In all other samples, the pH was measured between 8.5 and 9.0, without significant change over the test period.

[2] = Modified ASTM D943 oxidation (95 C.), constant time; assay type: physicochemical; conditions: aging time 312 hrs
Procedure: 1. Fill the oxidation test tube with 300 ml of the emulsion sample provided.
2. When the first sample containing no antioxidant or biocide reaches a TAN (total acid number) of 2.0 mg/g KOH, stop all of the oxidations at that same time and measure the TAN. During the course of the testing it may be necessary to add a small amount of defoamer (1 drop of Foam Ban MS-575 from Ultra Additives) to prevent excessive foaming and loss of sample out of the top of the test apparatus. 3. Unless noted above the other test details are identical to ASTM D943
Accordingly, additional thermal stress was applied to accentuate differences in antioxidant performance. The test chosen to do this was a modified ASTM D943 run at 95° C., which it was expected would provide some oxidative breakdown of the metalworking fluid. The test was modified so that after the uninhibited sample had reached a TAN value of 2 mg KOH/g all of the oxidations were stopped so that the time of the oxidation would be a constant (typically the test is run to a constant TAN value and the time is allowed to vary).

[3] = Modified ASTM D2272 (150 C.), constant time; assay type: physicochemical; conditions: after oxidation
Procedure: 1. Charge the vessel with 50 grams of the emulsion sample provided.
3. Unless noted above, the other test details are identical to ASTM D2272.
With the success of the 95° C. modified ASTM, thermal breakdown for the metalworking fluids at even higher temperature was tested. The test chosen was a modified ASTM D2272 (RBOT) which is run at 150° C. in a sealed bomb, which should provide sufficient stress to provide significant oxidative breakdown of the metalworking fluid. The test was modified so that after the inhibited sample had reduced pressure by 175 psi, all of the oxidations were stopped so that the time of the oxidation would be a constant (typically the test is run to a constant pressure drop value and the time is allowed to vary). […] Additionally, the pH of all samples dropped from the initial 9.0 to 3.0, with the exception of the sample of Naugalube 640, which dropped to 7.0.

[4] = RBOT, standard ASTM D2272 (150 C.), bomb life; assay type: physicochemical
Text: (§6) The antioxidants used in this study were received from internal and external commercial sources without alteration. The sample of butylated DPA was from a preparation of Naugalube 640 in which the sample was enriched in butylated DPA.
The ASTM D2272 method was run according to the standard procedure using a 10/90 (oil/water) emulsion as a test sample.

bacteria = experiment: Modified ASTM D3946 bottle test, bacteria count and onset (Examples 25-34); assay type: cell-based; conditions: 30 hours of incubation
Procedure: as §1, §2, §3, §4, §5
The biological activity was evaluated using a Sanicheck BF Conversion Chart. […]

[5] = TOST, standard ASTM D943 (95° C.), acid number; assay type: physicochemical; conditions: 0.5% Triadine-3 in Hyprene H100; two separate runs; baseline
Text: as §6
Combining the results of Examples 11-24 with those of Examples 1-10, the synergies involved in the oxidation testing used can be seen. […] Hyprene H100 is a 100 SUS naphthenic oil. Although there is a large variation in the baseline, the general antioxidant chemistry trends (phenolic vs. aminic) were consistent.

Molecule: CC(C)(C)c1cc(CCC(=O)OCCSCCOC(=O)CCc2cc(C(C)(C)C)c(O)c(C(C)(C)C)c2)cc(C(C)(C)C)c1O [AX 15, Thiodiethylene-bis(3,5-di-t-butyl-4-hydroxyhydrocinnamate)]
Sediment [1]: reduced the sediment

Molecule: butylated octylated diphenylamine [Naugalube 640]
Cream (%) [3]: < 1.0%
pH ([3]; initial 9.0): 7.0
Bomb Life (min) ([4]; 150 C., Table 1 blends): terminated before a break point was ever observed
synergy of antioxidant and biocide on onset time (bacteria): strongest
Sediment [1]: reduced the sediment

Molecule: Cc1cc(C(C)(C)C)c(O)c(C(C)(C)C)c1 [BHT, 2,6-di-t-butyl hydroxytoluene]
synergy of antioxidant and biocide on onset time (bacteria): weakest
Sediment [1]: antagonistically increased the sediment in combination with biocide

Next, values leading:

Cream (%) [2]: no significant cream
Molecule: mono-, di-, and tri-, nonylated diphenylamine [Naugalube 438L]

Sediment [1]: reduced the sediment
Molecule: butylated octylated diphenylamine [butylated DPA]

Cream (%) [2]: no significant cream
Molecule: octylated phenyl-α-naphthylamine [Naugalube APAN]

Bomb Life ([4]; 0.5% Triadine-3 in Hyprene H100, two separate runs, baseline): 35 min and 37 min
Oxidation Lifetime [5]: 492 h and 836 h
Molecule: OCCN1CN(CCO)CN(CCO)C1 [Triadine 3, 1,3,5-tris(hydroxyethyl)-s-triazine]
